According to ChEMBL document CHEMBL1909046, “DrugMatrix in vitro pharmacology data”:

Legend:
[1] = target: Mitogen-activated protein kinase 3 (Homo sapiens, UniProt P27361); test: DRUGMATRIX: Protein Serine/Threonine Kinase, ERK1 enzyme inhibition (substrate: Myelin Basic Protein); design: species or system Escherichia coli; settings: Not Active = under 50% inhibition at 10 µM
[2] = target: D(1A) dopamine receptor (Homo sapiens, UniProt P21728); test: DRUGMATRIX: Dopamine D1 radioligand binding (ligand: [3H] SCH-23390); type: cell membranes, CHO, Membrane; settings: cho; Not Active = under 50% inhibition at 10 µM
D(1A) dopamine receptor, sequence (P21728 whole entry): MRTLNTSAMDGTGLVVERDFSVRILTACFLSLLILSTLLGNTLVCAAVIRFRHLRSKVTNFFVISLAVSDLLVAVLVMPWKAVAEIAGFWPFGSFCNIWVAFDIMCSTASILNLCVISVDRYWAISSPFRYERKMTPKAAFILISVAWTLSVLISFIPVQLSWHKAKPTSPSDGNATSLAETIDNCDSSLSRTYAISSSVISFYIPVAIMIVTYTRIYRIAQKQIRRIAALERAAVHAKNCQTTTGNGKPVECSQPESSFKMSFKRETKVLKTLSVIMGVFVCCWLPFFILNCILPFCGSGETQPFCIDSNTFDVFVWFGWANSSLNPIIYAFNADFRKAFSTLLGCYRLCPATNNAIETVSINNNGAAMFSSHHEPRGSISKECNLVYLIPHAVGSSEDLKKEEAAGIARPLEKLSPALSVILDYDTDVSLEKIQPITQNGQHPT

Mitogen-activated protein kinase 3, sequence (P27361 whole entry): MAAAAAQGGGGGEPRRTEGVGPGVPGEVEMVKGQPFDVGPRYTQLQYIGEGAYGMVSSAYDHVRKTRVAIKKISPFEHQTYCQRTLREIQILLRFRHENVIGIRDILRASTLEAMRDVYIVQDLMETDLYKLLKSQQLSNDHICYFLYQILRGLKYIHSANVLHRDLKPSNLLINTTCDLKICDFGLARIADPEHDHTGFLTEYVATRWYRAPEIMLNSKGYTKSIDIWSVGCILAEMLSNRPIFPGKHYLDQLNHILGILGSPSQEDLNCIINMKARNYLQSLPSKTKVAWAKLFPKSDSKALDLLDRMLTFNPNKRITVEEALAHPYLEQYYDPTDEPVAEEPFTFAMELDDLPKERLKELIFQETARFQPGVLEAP

Cn1c(=O)c2c(ncn2CC(O)CO)n(C)c1=O (stereo unspecified) [DYPHYLLINE]
IC50 [1]: Not Active | IC50 [2]: Not Active

O=C(O)c1cccnc1Nc1cccc(C(F)(F)F)c1 [NIFLUMIC ACID]
IC50 [1]: Not Active | IC50 [2]: Not Active

COC(=O)Nc1nc2ccc(C(=O)c3cccs3)cc2[nH]1 [NOCODAZOLE]
IC50 [1]: Not Active | IC50 [2]: Not Active

N=C(N)NC(=O)Cc1c(Cl)cccc1Cl [GUANFACINE]
IC50 [1]: Not Active | IC50 [2]: Not Active

CCCOc1ccc(C(=O)OCCN(CC)CC)cc1N [PROPARACAINE]
IC50 [1]: Not Active | IC50 [2]: Not Active

Nc1ccn([C@@H]2O[C@H](CO)[C@@H](O)[C@@H]2O)c(=O)n1 [CYTARABINE]
IC50 [1]: Not Active | IC50 [2]: Not Active

O=C/C=C/c1ccccc1
IC50 [1]: Not Active | IC50 [2]: Not Active

C=CCc1ccc(O)c(OC)c1 [EUGENOL]
IC50 [1]: Not Active | IC50 [2]: Not Active

Oc1cccc(O)c1O [PYROGALLOL]
IC50 [1]: Not Active | IC50 [2]: Not Active

C[C@]12C=CC(=O)C=C1CC[C@@H]1[C@@H]2[C@@H](O)C[C@@]2(C)[C@H]1CC[C@]2(O)C(=O)CO [PREDNISOLONE]
IC50 [1]: Not Active | IC50 [2]: Not Active

CC(C(=O)O)c1cccc(Oc2ccccc2)c1 (stereo unspecified) [FENOPROFEN]
IC50 [1]: Not Active | IC50 [2]: Not Active

NNc1nncc2ccccc12 [HYDRALAZINE]
IC50 [1]: Not Active | IC50 [2]: Not Active

O=C1O[C@H]([C@@H](O)CO)C(O)=C1O [ASCORBIC ACID]
IC50 [1]: Not Active | IC50 [2]: Not Active

NC(=O)C[S+]([O-])C(c1ccccc1)c1ccccc1 (stereo unspecified) [MODAFINIL]
IC50 [1]: Not Active | IC50 [2]: Not Active

COc1cc([C@@H]2c3cc4c(cc3[C@@H](O[C@@H]3O[C@@H]5CO[C@@H](C)O[C@H]5[C@H](O)[C@H]3O)[C@H]3COC(=O)[C@H]23)OCO4)cc(OC)c1O [ETOPOSIDE]
IC50 [1]: Not Active | IC50 [2]: Not Active

CCC1(C)CC(=O)NC1=O (stereo unspecified) [ETHOSUXIMIDE]
IC50 [1]: Not Active | IC50 [2]: Not Active

Cc1nnc2n1-c1ccc(Cl)cc1C(c1ccccc1)=NC2 [ALPRAZOLAM]
IC50 [1]: Not Active | IC50 [2]: Not Active

COc1ccc(C(=O)N2CCCC2=O)cc1
IC50 [1]: Not Active | IC50 [2]: Not Active

CCCNCC(O)COc1ccccc1C(=O)CCc1ccccc1 (stereo unspecified) [PROPAFENONE]
IC50 [1]: Not Active | IC50 [2]: Not Active

NCCCC(O)(P(=O)(O)O)P(=O)(O)O [ALENDRONIC ACID]
IC50 [1]: Not Active | IC50 [2]: Not Active

CC(C)(C)NC(=O)[C@H]1CC[C@H]2[C@@H]3CC[C@H]4NC(=O)C=C[C@]4(C)[C@H]3CC[C@]12C [FINASTERIDE]
IC50 [1]: Not Active | IC50 [2]: Not Active

CC[C@H](C)[C@H]1O[C@]2(C=C[C@@H]1C)C[C@@H]1C[C@@H](C/C=C(\C)[C@@H](O[C@H]3C[C@H](OC)[C@@H](O[C@H]4C[C@H](OC)[C@@H](O)[C@H](C)O4)[C@H](C)O3)[C@@H](C)/C=C/C=C3\CO[C@@H]4[C@H](O)C(C)=C[C@@H](C(=O)O1)[C@]34O)O2.CO[C@H]1C[C@H](O[C@H]2[C@H](C)O[C@@H](O[C@@H]3/C(C)=C/C[C@@H]4C[C@@H](C[C@]5(C=C[C@H](C)[C@@H](C(C)C)O5)O4)OC(=O)[C@@H]4C=C(C)[C@@H](O)[C@H]5OC/C(=C\C=C\[C@@H]3C)[C@]54O)C[C@@H]2OC)O[C@@H](C)[C@@H]1O [ABAMECTIN]
IC50 [1]: Not Active

Cn1c(=O)c2[nH]cnc2n(C)c1=O.Cn1c(=O)c2[nH]cnc2n(C)c1=O.NCCN [AMINOPHYLLINE]
IC50 [1]: Not Active | IC50 [2]: Not Active

C#C[C@]1(OC(C)=O)CC[C@H]2[C@@H]3CCC4=C[C@@H](OC(C)=O)CC[C@@H]4[C@H]3CC[C@@]21C [ETHYNODIOL DIACETATE]
IC50 [1]: Not Active | IC50 [2]: Not Active

CN/C(=N\CCSCc1nc[nH]c1C)NC#N [CIMETIDINE]
IC50 [1]: Not Active | IC50 [2]: Not Active

O=C(O)CCNC(=O)c1ccccc1 [BETAMIPRON]
IC50 [1]: Not Active | IC50 [2]: Not Active
